System: MCF7 multi-cell spheroids with HUVEC/MSC, viability
Assay: Anticancer human tumor MCF7 cell line growth inhibition [IpAb];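 also: spheroids exposed to agents for seven days before readout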
Conditions: for IC50: curve of first compound; for viability, T/C: stronger effect = lower value
Description: Combinatorial screen of targeted agents with ipatasertib and abemaciclib in multi-cell type tumor spheroids
A high-throughput screen of multi-cell type tumor spheroids was designed to identify active combinations of targeted small molecules and ipatasertib or abemaciclib. Complex spheroids include a stromal component modeled by human endothelial cells (HUVEC) and fibroblasts modeled by human mesenchymal stem cells (MSCs). The concentration ranges selected for each drug and investigational agent were based upon clinically achievable concentrations if the clinical Cmax of the agent was known.
Compounds. The drugs and investigational agents: ipatasertib (NSC767898), abemaciclib(NSC768073), selumetinib (NSC741078), trametinib (758246), adavosertib (NSC754352), everolimus (NSC733504), sapanisertib (NSC764658), vemurafenib (NSC761431), venetoclax (NSC766270), copanlisib (NSC809693), apelisib (NSC765974), palbociblib (NSC758247), vemurafenib (NSC761431), dabrafenib (NSC764134), ravoxertinib (NSC781343), BMS-387032 (NSC767048), sotorasib (NSC818433), talazoparib (NSC767125) and afursertib (NSC778305), were obtained from the National Cancer Institute (NCI) Developmental Therapeutics Program Chemical Repository. The FDA-approved anticancer drug set is available from the NCI Developmental Therapeutics Program. […] The stock solutions were prepared in dimethyl sulfoxide (DMSO, Sigma-Aldrich, St. Louis, MO, cat. D2650) at 800-fold the tested concentration and stored at -70 degrees C prior to their use. All drugs and investigational agents were tested over a range starting from a high concentration at or near the clinical Cmax and decreasing in half-log increments. If the clinical Cmax for an agent had not been determined, the highest concentration tested was 10 microM.
NCI60 Cell Culture. NCI60 cell lines were obtained from the NCI Developmental Therapeutics Program Tumor Repository. For each lot of cells, the Repository performed Applied Biosystems AmpFLSTR Identifiler testing with PCR amplification to confirm consistency with the published Identifier STR profile for each cell line. Cells were kept in continuous culture for no more than 20 passages. The optimal seeding densities for each of the cell lines at each time point assessed were determined prior to performing the concentration response studies. Briefly, the NCI60 human tumor lines were grown as monolayers in RPMI 1640 medium supplemented with 10% FBS and 2 mmol/L L-glutamine.
An additional 9 lines were from the NCI60 cell line panel including MDA-MB-231 breast carcinoma, MDA-MB-468 breast carcinoma, MCF7 breast carcinoma, Hs578T breast carcinoma, MALME-3M melanoma, SK-MEL-2 melanoma, SK-OV-3 ovarian carcinoma, DU-145 prostate carcinoma, PC-3 prostate carcinoma, all cell lines along with major genetic alterations are listed on Table 2. Pooled donor human umbilical vein endothelial cells (HUVEC, Lonza, cat. CC-2519) and human mesenchymal stem cells (hMSC, Lonza, cat. PT-2501) were purchased from Lonza (Walkersville, MD).
PDMR cell lines were grown in complete medium (DC medium): Dulbecco's modified Eagle's medium (DMEM)/F12 supplemented with 5% fetal bovine serum (FBS), 2 mM L-glutamine, 100 U/mL penicillin and 100 µg/ml streptomycin, 0.4 µg/ml hydrocortisone, 10 ng/ml epidermal growth factor (EGF) recombinant human protein, 24 µg/mL adenine, and 0.1 mg/mL primocin. During culture from frozen stock vials, PDMR cells were cultured in the same medium containing 10 µM Y-27632 (see Table 3). The PDCs were cultured in complete DMEM/F12 media without 10 microM Y-27632 dihydrochloride for at least two passages prior to the screen. The pooled donor HUVEC and hMSC were cultured in endothelial cell growth medium 2 (PromoCell, Heidelberg, Germany, cat. C-22011) and mesenchymal stem cell growth medium 2 (PromoCell, cat. C-28009), respectively. For all experiments, HUVEC and hMSC were used at passages </=5.
[…]

For `Cn1ncc(Cl)c1-c1cc(C(=O)NC(CN)Cc2cccc(F)c2)sc1Cl` (stereo not given) + CC(C)NCC(C(=O)N1CCN(c2ncnc3c2C(C)CC3O)CC1)c1ccc(Cl)cc1, the IC50 (second compound 0.1 µM) was 1200 nM, the IC50 (second compound 0.316 µM) was 996 nM and the IC50 (second compound 1 µM) was 1310 nM. The IC50 (second compound 3.16 µM) was 566 nM, the IC50 (second compound 10 µM) was less than 31.6 nM and the viability, T/C (second compound 0.1 µM, first compound 0.0316 µM) was 85.2%. The viability, T/C (second compound 0.1 µM, first compound 0.1 µM) was 79.4%, the viability, T/C (second compound 0.1 µM, first compound 0.316 µM) was 74.2% and the viability, T/C (second compound 0.1 µM, first compound 1 µM) was 59.2%. The viability, T/C (second compound 0.1 µM, first compound 3.16 µM) was 3.8%, the viability, T/C (second compound 0.1 µM, first compound 10 µM) was 0.14% and the viability, T/C (second compound 0.316 µM, first compound 0.0316 µM) was 84.1%. For the same compound, the viability, T/C (second compound 0.316 µM, first compound 0.1 µM) was 73.7%, the viability, T/C (second compound 0.316 µM, first compound 0.316 µM) was 72.5% and the viability, T/C (second compound 0.316 µM, first compound 1 µM) was 51.1%. It also gave a viability, T/C (second compound 0.316 µM, first compound 3.16 µM) of 10.7%, a viability, T/C (second compound 0.316 µM, first compound 10 µM) of 0.13% and a viability, T/C (second compound 1 µM, first compound 0.0316 µM) of 74.7%. The viability, T/C (second compound 1 µM, first compound 0.1 µM) was 70.7%, the viability, T/C (second compound 1 µM, first compound 0.316 µM) was 67.5% and the viability, T/C (second compound 1 µM, first compound 1 µM) was 63.4%. The viability, T/C (second compound 1 µM, first compound 3.16 µM) was 7%, the viability, T/C (second compound 1 µM, first compound 10 µM) was 0.12% and the viability, T/C (second compound 3.16 µM, first compound 0.0316 µM) was 59.9%. For the same compound, the viability, T/C (second compound 3.16 µM, first compound 0.1 µM) was 61.4%, the viability, T/C (second compound 3.16 µM, first compound 0.316 µM) was 54% and the viability, T/C (second compound 3.16 µM, first compound 1 µM) was 43.2%. It also gave a viability, T/C (second compound 3.16 µM, first compound 3.16 µM) of 6.48%, a viability, T/C (second compound 3.16 µM, first compound 10 µM) of 0.13% and a viability, T/C (second compound 10 µM, first compound 0.0316 µM) of 42.6%. The viability, T/C (second compound 10 µM, first compound 0.1 µM) was 49.1%, the viability, T/C (second compound 10 µM, first compound 0.316 µM) was 47.3% and the viability, T/C (second compound 10 µM, first compound 1 µM) was 43.3%. It also gave a viability, T/C (second compound 10 µM, first compound 3.16 µM) of 2.17% and a viability, T/C (second compound 10 µM, first compound 10 µM) of 0.59%.
